Test results from patent US20200253907A1, “Compositions and Methods for Treating Neurodegenerative Diseases” (The Regents of the University of California, priority 2017, published 2020).
Entries after “also recorded” stand apart in the source; their conditions may differ.

How the values were obtained:
GMC101 C. elegans strain = assay: Paralysis assay in GMC101 C. elegans model of Alzheimer's disease; assay type: in vivo; details: for paralysis caused by Aβ: single agent, FIG. 4 (alanine 1-8 mM), FIG. 5 (KIC 2-32 mM); for GMC101 paralysis: 4 mM, FIG. 3
Description: To investigate the effects of small molecules in a C. elegans model of Alzheimer's disease, the GMC101 C. elegans strain, developed by Gawain McColl at the University of Melbourne, Australia, was used. The GMC101 C. elegans strain expresses the full length human amyloid beta 1-42 protein in the body wall muscle cells, leading to a fully penetrant age-progressive paralysis. These worms were first age-synchronized by performing an egg prep (mixed <100 gravid worms in 70 μl M9 buffer, 25 μl bleach and 5 μl 10 N NaOH). […] All worms were transferred to fresh plates on Day 5.

[1] = tested on: differentiated PC-12 cells; assay: Amyloid-beta induced cell death in differentiated PC-12 cells; assay type: cell-based; details: 200 μM, pretreated 2 hours before Aβ42 or Aβ25-35; 24-hour incubation; control cells 48.5±1.8%; FIG. 16
Excerpt: Overnight after seeding, cells were differentiated with NGF in 0.5% FCS, RPMI 1640 medium for 7 days.

C[C@H](N)C(=O)O [alanine, L-alanine]
health span of GMC101 (GMC101 C. elegans strain; 2 mM alanine alone, FIG. 9): can extend health span of GMC101 | health span of GMC101 (GMC101 C. elegans strain; 4 mM alanine alone, FIG. 10): can extend health span of GMC101 | health span of GMC101 (GMC101 C. elegans strain; 8 mM alanine alone, FIG. 11): can extend health span of GMC101 | paralysis caused by Aβ (GMC101 C. elegans strain): can reduce paralysis caused by Aβ

CCC(=O)C(=O)O [α-KB, α-ketobutyrate]
Aβ caused paralysis (GMC101 C. elegans strain; about 2 mM, FIG. 2): can delay Aβ caused paralysis

CC(C)CC(=O)C(=O)O [KIC, α-ketoisocaproate]
beneficial effect in GMC101 (paralysis) (GMC101 C. elegans strain; 16 mM KIC alone): not observed to exhibit beneficial effects; also recorded: does not exert a beneficial effect | paralysis caused by Aβ (GMC101 C. elegans strain): reduces paralysis caused by Aβ

CC[C@H](O)C(=O)O [2-HB, 2-hydroxybutyrate]
GMC101 paralysis (GMC101 C. elegans strain): can also delay GMC101 paralysis

CC(C)C(=O)C(=O)O [KIV, α-ketoisovalerate]
GMC101 health span (GMC101 C. elegans strain; 8 mM, FIG. 6): can extend GMC101 health span

CCCCCCCCOC(=O)C(=O)CCC(=O)O [octyl α-KG, octyl α-ketoglutarate]
cells remaining alive (viable) [1]: about 73±2.2%

O=C(O)CCC(=O)C(=O)O [α-KG, α-ketoglutarate]
health span of GMC101 C. elegans strain (GMC101 C. elegans strain; 2 mM, FIG. 1): can extend the health span | delay of paralysis compared to vehicle treatment (GMC101 C. elegans strain; 8 mM on NGM plates, worms shifted to 25° C.): 22%

CC(O)CC(=O)O (stereo not shown) [3-HB, 3-hydroxybutyrate, reference compound]
GMC101 paralysis (GMC101 C. elegans strain): delay in paralysis is not observed
